ChEMBL document CHEMBL1122460, “Preparation of some 10-[3-(dimethylamino)-1-propyl]-10H-pyrazino[2,3-b][1,4] benzothiazines as potential neuroleptics” (J Med Chem, 1983)

Assays:
Format in all cases: protein assay
Dopamine receptor [1] = assay: Tested for displacement of rat caudate dopamine receptors by using [3H]spiperone as radioligand
Dopamine receptor [2] = assay: Tested for displacement of rat striatal dopamine receptors by using [3H]apomorphine as radioligand
Dopamine receptor [3] = assay: Tested for displacement of rat caudate dopamine receptors by using [3H]apomorphine as radioligand

IC50 (Dopamine receptor [1]) [nM] | IC50 (Dopamine receptor [2]) [nM] | IC50 (Dopamine receptor [3]) [nM] | Structure (SMILES)
9166 | 5968 | – | CN(C)CCCN1c2cc(Cl)ccc2Sc2nccnc21
382 | 103 | – | Cc1cnc2c(n1)N(CCCN(C)C)c1ccccc1S2
553 | – | 1222 | CN(C)CCCN1c2ccccc2Sc2nc(Cl)cnc21
62.1 | – | 67.3 | CN(C)CCCN1c2ccccc2Sc2ncc(Cl)nc21
